Key:
Assay in all cases: biochemical
nemo-like kinase, NLK = target: T1, nemo-like kinase, NLK (Homo sapiens, UniProt Q9UBE8)
T1 sequence (Q9UBE8 1-527): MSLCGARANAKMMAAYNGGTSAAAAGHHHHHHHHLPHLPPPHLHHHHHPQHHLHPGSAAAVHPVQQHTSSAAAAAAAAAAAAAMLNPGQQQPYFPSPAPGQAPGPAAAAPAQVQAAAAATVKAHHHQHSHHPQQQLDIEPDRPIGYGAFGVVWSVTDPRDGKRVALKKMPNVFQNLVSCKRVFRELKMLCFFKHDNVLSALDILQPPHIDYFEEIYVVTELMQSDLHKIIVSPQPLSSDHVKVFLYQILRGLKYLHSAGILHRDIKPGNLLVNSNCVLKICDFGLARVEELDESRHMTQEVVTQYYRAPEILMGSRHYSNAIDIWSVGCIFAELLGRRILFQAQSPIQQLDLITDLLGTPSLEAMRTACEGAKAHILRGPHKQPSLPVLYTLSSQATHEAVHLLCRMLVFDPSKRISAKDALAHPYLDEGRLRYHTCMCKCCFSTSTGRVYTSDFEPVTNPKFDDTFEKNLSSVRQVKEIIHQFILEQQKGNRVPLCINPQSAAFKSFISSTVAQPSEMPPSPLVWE

EphA8 = target: T2, EphA8 (Homo sapiens, UniProt P29322)
T2 sequence (P29322 1-1005): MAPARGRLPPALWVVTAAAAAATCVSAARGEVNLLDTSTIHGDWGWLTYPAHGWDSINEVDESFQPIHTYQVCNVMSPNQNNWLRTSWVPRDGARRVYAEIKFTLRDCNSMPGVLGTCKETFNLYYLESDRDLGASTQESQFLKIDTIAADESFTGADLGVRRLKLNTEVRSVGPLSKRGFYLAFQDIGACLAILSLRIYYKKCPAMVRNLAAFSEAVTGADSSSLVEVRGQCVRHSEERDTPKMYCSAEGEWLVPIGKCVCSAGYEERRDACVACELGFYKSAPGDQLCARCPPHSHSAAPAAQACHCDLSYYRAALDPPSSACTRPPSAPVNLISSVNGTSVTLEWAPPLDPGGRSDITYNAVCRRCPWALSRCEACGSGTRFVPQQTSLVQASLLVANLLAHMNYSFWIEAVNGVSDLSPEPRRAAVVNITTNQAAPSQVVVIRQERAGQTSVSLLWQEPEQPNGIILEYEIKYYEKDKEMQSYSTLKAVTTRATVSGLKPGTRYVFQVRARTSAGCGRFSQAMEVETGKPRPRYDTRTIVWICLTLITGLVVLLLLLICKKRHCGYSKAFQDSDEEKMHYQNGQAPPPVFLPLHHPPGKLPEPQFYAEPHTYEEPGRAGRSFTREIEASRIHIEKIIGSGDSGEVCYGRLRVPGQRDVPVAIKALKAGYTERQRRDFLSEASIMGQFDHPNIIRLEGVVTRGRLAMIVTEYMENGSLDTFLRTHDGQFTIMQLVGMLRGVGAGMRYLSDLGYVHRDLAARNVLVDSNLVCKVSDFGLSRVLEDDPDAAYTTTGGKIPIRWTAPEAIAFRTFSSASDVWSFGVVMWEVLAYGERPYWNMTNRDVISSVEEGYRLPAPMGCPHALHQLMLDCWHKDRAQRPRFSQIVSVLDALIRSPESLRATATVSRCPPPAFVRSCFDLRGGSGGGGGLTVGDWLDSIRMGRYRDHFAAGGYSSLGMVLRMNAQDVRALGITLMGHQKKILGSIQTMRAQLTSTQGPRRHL

EphB6 = target: T3, EphB6 (Homo sapiens, UniProt O15197)
T3 sequence (O15197 1-1021): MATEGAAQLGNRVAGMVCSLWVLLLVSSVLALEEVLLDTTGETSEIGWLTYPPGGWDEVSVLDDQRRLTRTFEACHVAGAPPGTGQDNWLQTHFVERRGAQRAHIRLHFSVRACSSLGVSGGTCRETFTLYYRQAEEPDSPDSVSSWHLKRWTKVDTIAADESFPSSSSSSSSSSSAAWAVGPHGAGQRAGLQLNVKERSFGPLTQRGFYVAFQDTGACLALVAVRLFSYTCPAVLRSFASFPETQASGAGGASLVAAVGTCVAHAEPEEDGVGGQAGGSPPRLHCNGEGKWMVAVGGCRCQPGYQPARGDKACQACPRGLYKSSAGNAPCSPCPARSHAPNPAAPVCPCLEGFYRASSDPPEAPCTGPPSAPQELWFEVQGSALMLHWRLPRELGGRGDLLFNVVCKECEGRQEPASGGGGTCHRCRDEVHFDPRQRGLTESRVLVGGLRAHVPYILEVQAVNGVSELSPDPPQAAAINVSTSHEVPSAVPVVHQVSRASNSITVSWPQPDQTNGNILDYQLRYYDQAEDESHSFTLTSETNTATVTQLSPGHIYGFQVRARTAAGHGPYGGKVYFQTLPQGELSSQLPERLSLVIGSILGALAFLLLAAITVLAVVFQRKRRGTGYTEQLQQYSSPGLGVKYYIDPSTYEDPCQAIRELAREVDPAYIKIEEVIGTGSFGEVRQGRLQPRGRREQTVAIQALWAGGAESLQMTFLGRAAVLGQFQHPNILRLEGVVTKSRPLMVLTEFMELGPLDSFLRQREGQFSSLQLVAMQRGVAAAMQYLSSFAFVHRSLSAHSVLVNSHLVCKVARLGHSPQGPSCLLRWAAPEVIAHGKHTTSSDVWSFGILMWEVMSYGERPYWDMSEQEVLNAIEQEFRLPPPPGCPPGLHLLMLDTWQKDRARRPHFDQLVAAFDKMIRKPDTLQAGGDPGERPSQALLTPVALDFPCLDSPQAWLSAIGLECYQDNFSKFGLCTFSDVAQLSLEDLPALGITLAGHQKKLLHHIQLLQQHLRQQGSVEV

BMPR1B = BMPR1B (Homo sapiens, UniProt O00238)
[1] = target: AarF domain containing kinase 3, ADCK3 (Homo sapiens, UniProt Q8NI60)

Measured: Kd

AarF domain containing kinase 3, ADCK3, sequence (Q8NI60 163-647): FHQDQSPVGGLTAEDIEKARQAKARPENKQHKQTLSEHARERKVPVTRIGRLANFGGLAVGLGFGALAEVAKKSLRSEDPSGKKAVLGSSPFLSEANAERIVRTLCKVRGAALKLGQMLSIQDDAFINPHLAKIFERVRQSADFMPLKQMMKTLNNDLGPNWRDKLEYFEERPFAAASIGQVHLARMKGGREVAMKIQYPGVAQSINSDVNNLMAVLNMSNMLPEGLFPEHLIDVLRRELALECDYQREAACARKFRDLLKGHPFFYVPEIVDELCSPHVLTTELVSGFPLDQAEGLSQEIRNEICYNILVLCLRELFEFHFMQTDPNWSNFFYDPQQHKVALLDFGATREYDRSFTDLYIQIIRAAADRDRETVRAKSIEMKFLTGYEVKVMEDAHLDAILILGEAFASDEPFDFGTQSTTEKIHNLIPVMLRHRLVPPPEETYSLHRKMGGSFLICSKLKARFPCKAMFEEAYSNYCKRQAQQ
BMPR1B, sequence (O00238 whole entry, the tested form may be a part): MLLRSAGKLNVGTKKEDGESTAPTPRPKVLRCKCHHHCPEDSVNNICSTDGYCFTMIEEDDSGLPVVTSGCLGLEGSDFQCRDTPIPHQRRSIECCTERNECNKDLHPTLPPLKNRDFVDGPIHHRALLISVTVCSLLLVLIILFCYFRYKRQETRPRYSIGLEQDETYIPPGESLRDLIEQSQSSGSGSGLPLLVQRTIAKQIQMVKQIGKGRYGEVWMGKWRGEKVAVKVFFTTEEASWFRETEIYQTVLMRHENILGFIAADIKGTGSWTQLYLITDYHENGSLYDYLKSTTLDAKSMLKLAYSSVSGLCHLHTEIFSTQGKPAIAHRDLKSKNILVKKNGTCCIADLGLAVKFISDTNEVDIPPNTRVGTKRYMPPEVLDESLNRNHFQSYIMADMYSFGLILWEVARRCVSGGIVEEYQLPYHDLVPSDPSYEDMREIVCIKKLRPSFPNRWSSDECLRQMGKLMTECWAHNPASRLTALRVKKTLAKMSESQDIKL

COc1cc(N(C)c2ccnc3ccc(C(F)(F)F)cc23)cc(OC)c1OC [compound 21, negative control (21)]
> 10 µM: all assays above
